Source: US20230024302A1, “2,3,5-TRISUBSTITUTED PYRAZOLO[1,5-A]PYRIMIDINE COMPOUNDS” (Arcus Biosciences, Inc., priority 2019, published 2023)

Tests used:
PI3Kγ (p120γ) = molecular target: T1, PI3Kγ (p120γ) (Homo sapiens, UniProt P48736); assay: Inhibition of PI3K kinase activity (ADP Glo), PI3Kγ; details: Table 1, p120γ, read-out: biochemical potency (PI3Kγ IC50)
T1 construct: purchased Promega V1761
How it was run: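 IC50 values come from a 4-parameter nonlinear fit of ADP-Glo luminescence, which measures ADP produced as PIP2 is phosphorylated to PIP3. The p120γ enzyme (2× stock 8 nM) sat with compound 1 h at rt before substrate (2× stocks: 50 μM ATP, 0.1 mg/ml PIP2) was added. Phosphorylation then proceeded 60 min at rt.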

PI3Kγ = molecular target: T2, PI3Kγ (Homo sapiens, UniProt P48736); assay: PI3Kγ cellular assay in THP-1 cells (AKT pS473 AlphaLISA); assay type: cell-based; details: Table 1, rhMCP-1 stimulated AKT pS473, read-out: cellular potency (PI3Kγ IC50)
T2 construct: host or cells: THP-1
T2 sequence (P48736 whole entry): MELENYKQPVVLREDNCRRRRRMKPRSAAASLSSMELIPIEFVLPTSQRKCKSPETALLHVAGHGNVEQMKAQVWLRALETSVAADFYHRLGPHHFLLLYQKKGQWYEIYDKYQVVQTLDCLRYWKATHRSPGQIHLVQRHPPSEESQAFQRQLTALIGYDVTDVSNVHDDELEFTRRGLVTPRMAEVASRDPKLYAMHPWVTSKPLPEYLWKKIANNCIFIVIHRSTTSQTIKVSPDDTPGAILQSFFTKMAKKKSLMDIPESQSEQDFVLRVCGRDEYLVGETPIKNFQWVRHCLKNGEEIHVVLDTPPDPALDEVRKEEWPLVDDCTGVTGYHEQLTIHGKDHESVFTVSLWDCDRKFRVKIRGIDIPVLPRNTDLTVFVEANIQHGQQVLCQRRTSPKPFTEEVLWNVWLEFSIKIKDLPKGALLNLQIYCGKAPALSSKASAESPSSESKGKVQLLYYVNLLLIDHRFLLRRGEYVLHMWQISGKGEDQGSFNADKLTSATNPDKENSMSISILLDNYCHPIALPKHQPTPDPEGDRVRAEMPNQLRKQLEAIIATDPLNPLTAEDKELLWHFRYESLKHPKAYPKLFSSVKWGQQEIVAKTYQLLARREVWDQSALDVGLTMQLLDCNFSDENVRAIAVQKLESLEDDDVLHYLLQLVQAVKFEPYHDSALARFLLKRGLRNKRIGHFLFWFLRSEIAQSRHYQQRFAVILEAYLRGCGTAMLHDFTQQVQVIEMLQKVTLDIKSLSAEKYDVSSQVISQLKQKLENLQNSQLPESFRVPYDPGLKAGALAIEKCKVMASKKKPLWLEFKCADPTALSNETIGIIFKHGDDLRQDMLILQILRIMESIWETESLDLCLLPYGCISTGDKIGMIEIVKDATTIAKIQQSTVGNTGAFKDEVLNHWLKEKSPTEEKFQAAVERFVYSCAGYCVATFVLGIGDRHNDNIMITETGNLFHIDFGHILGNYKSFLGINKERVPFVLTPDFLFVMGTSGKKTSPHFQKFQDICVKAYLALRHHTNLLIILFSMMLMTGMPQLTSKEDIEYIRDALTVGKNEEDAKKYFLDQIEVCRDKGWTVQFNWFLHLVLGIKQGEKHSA
How it was run: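 Endogenous AKT S473 phosphorylation, detected by AlphaLISA in lysates, serves as the PI3Kγ activity read-out in stimulated, serum-starved THP-1 cells (1.8×10^5/well).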

T1 sequence (P48736 whole entry): as above

## CC(C)[C@H](CO)NC(=O)c1c(N)nn2ccc(-c3cc4c(c(NS(C)(=O)=O)c3)C(=O)N([C@@H](C)C3CC3)C4)nc12 [Example 96, 2-Amino-5-{2-[(1S)-1-cyclopropylethyl]-7-methanesulfonamido-1-oxo-2,3-dihydro-1H-isoindol-5-yl}-N-[(2R)-1-hydroxy-3-methylbutan-2-yl]pyrazolo[1,5-a]pyrimidine-3-carboxamide]
PI3Kγ (p120γ)
  IC50: < 100 nM
PI3Kγ
  IC50: < 100 nM

## C[C@@H](C1CC1)N1Cc2cc(-c3ccn4nc(N)c(C(=O)N[C@@H](CO)C5CC5)c4n3)cc(NS(C)(=O)=O)c2C1=O [Example 97, 2-Amino-N-((R)-1-cyclopropyl-2-hydroxyethyl)-5-(2-((S)-1-cyclopropylethyl)-7-(methylsulfonamido)-1-oxoisoindolin-5-yl)pyrazolo[1,5-a]pyrimidine-3-carboxamide]
PI3Kγ (p120γ)
  IC50: < 100 nM
PI3Kγ
  IC50: < 100 nM

## C[C@@H](NC(=O)c1c(N)nn2ccc(-c3cc4c(c(NS(C)(=O)=O)c3)C(=O)N([C@@H](C)C3CC3)C4)nc12)c1cnn(C)c1 [Example 98, 2-Amino-5-{2-[(1S)-1-cyclopropylethyl]-7-methanesulfonamido-1-oxo-2,3-dihydro-1H-isoindol-5-yl}-N-[(1R)-1-(1-methyl-1H-pyrazol-4-yl)ethyl]pyrazolo[1,5-a]pyrimidine-3-carboxamide]
PI3Kγ (p120γ)
  IC50: < 100 nM
PI3Kγ
  IC50: < 100 nM

## C[C@@H](C1CC1)N1Cc2cc(-c3ccn4nc(N)c(C(=O)Nc5cccnc5)c4n3)cc(NS(C)(=O)=O)c2C1=O [Example 99, (S)-2-Amino-5-(2-(1-cyclopropylethyl)-7-(methylsulfonamido)-1-oxoisoindolin-5-yl)-N-(pyridin-3-yl)pyrazolo[1,5-a]pyrimidine-3-carboxamide]
PI3Kγ (p120γ)
  IC50: < 100 nM
PI3Kγ
  IC50: < 100 nM

## C[C@@H](C1CC1)N1Cc2cc(-c3ccn4nc(N)c(C(=O)Nc5ccncc5)c4n3)cc(NS(C)(=O)=O)c2C1=O [Example 100, (S)-2-Amino-5-(2-(1-cyclopropylethyl)-7-(methylsulfonamido)-1-oxoisoindolin-5-yl)-N-(pyridin-4-yl)pyrazolo[1,5-a]pyrimidine-3-carboxamide]
PI3Kγ (p120γ)
  IC50: < 100 nM
PI3Kγ
  IC50: < 100 nM

## Cc1cc(NC(=O)c2c(N)nn3ccc(-c4cc5c(c(NS(C)(=O)=O)c4)C(=O)N([C@@H](C)C4CC4)C5)nc23)ccn1 [Example 101, (S)-2-Amino-5-(2-(1-cyclopropylethyl)-7-(methylsulfonamido)-1-oxoisoindolin-5-yl)-N-(2-methylpyridin-4-yl)pyrazolo[1,5-a]pyrimidine-3-carboxamide]
PI3Kγ (p120γ)
  IC50: < 100 nM
PI3Kγ
  IC50: < 100 nM

## Cc1cc(NC(=O)c2c(N)nn3ccc(-c4cc5c(c(NS(C)(=O)=O)c4)C(=O)N([C@@H](C)C4CC4)C5)nc23)cc(C)n1 [Example 102, (S)-2-Amino-5-(2-(1-cyclopropylethyl)-7-(methylsulfonamido)-1-oxoisoindolin-5-yl)-N-(2,6-dimethylpyridin-4-yl)pyrazolo[1,5-a]pyrimidine-3-carboxamide]
PI3Kγ (p120γ)
  IC50: < 100 nM
PI3Kγ
  IC50: < 100 nM

## C[C@@H](C1CC1)N1Cc2cc(-c3ccn4nc(N)c(C(=O)Nc5ccc(C(C)(C)O)nc5)c4n3)cc(NS(C)(=O)=O)c2C1=O [Example 103, 2-Amino-5-{2-[(1S)-1-cyclopropylethyl]-7-methanesulfonamido-1-oxo-2,3-dihydro-1H-isoindol-5-yl}-N-[6-(2-hydroxypropan-2-yl)pyridin-3-yl]pyrazolo[1,5-a]pyrimidine-3-carboxamide]
PI3Kγ (p120γ)
  IC50: < 100 nM
PI3Kγ
  IC50: < 100 nM

## C[C@@H](C1CC1)N1Cc2cc(-c3ccn4nc(N)c(C(=O)Nc5ccccc5)c4n3)cc(NS(C)(=O)=O)c2C1=O [Example 104, (S)-2-Amino-5-(2-(1-cyclopropylethyl)-7-(methylsulfonamido)-1-oxoisoindolin-5-yl)-N-phenylpyrazolo[1,5-a]pyrimidine-3-carboxamide]
PI3Kγ (p120γ)
  IC50: < 100 nM
PI3Kγ
  IC50: < 100 nM

## C[C@@H](C1CC1)N1Cc2cc(-c3ccn4nc(N)c(C(=O)Nc5ccc(CO)cc5)c4n3)cc(NS(C)(=O)=O)c2C1=O [Example 105, 2-Amino-5-{2-[(1S)-1-cyclopropylethyl]-7-methanesulfonamido-1-oxo-2,3-dihydro-1H-isoindol-5-yl}-N-[4-(hydroxymethyl)phenyl]pyrazolo[1,5-a]pyrimidine-3-carboxamide]
PI3Kγ (p120γ)
  IC50: < 100 nM
PI3Kγ
  IC50: < 100 nM

## C[C@@H](C1CC1)N1Cc2cc(-c3ccn4nc(N)c(C(=O)Nc5cnn(CC(F)(F)F)c5)c4n3)cc(NS(C)(=O)=O)c2C1=O [Example 106, 2-Amino-5-{2-[(1S)-1-cyclopropylethyl]-7-methanesulfonamido-1-oxo-2,3-dihydro-1H-isoindol-5-yl}-N-[1-(2,2,2-trifluoroethyl)-1H-pyrazol-4-yl]pyrazolo[1,5-a]pyrimidine-3-carboxamide]
PI3Kγ (p120γ)
  IC50: < 100 nM
PI3Kγ
  IC50: < 100 nM

## Cc1nn(C)cc1NC(=O)c1c(N)nn2ccc(-c3cc4c(c(NS(C)(=O)=O)c3)C(=O)N([C@@H](C)C3CC3)C4)nc12 [Example 107, 2-Amino-5-{2-[(1S)-1-cyclopropylethyl]-7-methanesulfonamido-1-oxo-2,3-dihydro-1H-isoindol-5-yl}-N-(1,3-dimethyl-1H-pyrazol-4-yl)pyrazolo[1,5-a]pyrimidine-3-carboxamide]
PI3Kγ (p120γ)
  IC50: < 100 nM
PI3Kγ
  IC50: < 100 nM

## Cc1c(NC(=O)c2c(N)nn3ccc(-c4cc5c(c(NS(C)(=O)=O)c4)C(=O)N([C@@H](C)C4CC4)C5)nc23)cnn1C [Example 108, 2-Amino-5-{2-[(1S)-1-cyclopropylethyl]-7-methanesulfonamido-1-oxo-2,3-dihydro-1H-isoindol-5-yl}-N-(1,5-dimethyl-1H-pyrazol-4-yl)pyrazolo[1,5-a]pyrimidine-3-carboxamide]
PI3Kγ (p120γ)
  IC50: < 100 nM
PI3Kγ
  IC50: < 100 nM

## C[C@@H](C1CC1)N1Cc2cc(-c3ccn4nc(N)c(C(=O)Nc5ncn(C)n5)c4n3)cc(NS(C)(=O)=O)c2C1=O [Example 109, 2-Amino-5-{2-[(1S)-1-cyclopropylethyl]-7-methanesulfonamido-1-oxo-2,3-dihydro-1H-isoindol-5-yl}-N-(1-methyl-1H-1,2,4-triazol-3-yl)pyrazolo[1,5-a]pyrimidine-3-carboxamide]
PI3Kγ (p120γ)
  IC50: < 100 nM
PI3Kγ
  IC50: 100 to 1000 nM

## CCS(=O)(=O)Nc1cc(-c2ccn3nc(N)c(C(=O)NC4CC4)c3n2)cc2c1C(=O)N([C@@H](C)C1CC1)C2 [Example 110, 2-Amino-N-cyclopropyl-5-{2-[(1S)-1-cyclopropylethyl]-7-ethanesulfonamido-1-oxo-2,3-dihydro-1H-isoindol-5-yl}pyrazolo[1,5-a]pyrimidine-3-carboxamide]
PI3Kγ (p120γ)
  IC50: < 100 nM
PI3Kγ
  IC50: < 100 nM

## CCS(=O)(=O)Nc1cc(-c2ccn3nc(N)c(C(=O)N[C@H]4C[C@](C)(O)C4)c3n2)cc2c1C(=O)N([C@@H](C)C1CC1)C2 [Example 111, 2-Amino-5-{2-[(1S)-1-cyclopropylethyl]-7-ethanesulfonamido-1-oxo-2,3-dihydro-1H-isoindol-5-yl}-N-[trans-3-hydroxy-3-methylcyclobutyl]pyrazolo[1,5-a]pyrimidine-3-carboxamide]
PI3Kγ (p120γ)
  IC50: < 100 nM
PI3Kγ
  IC50: < 100 nM

## CCS(=O)(=O)Nc1cc(-c2ccn3nc(N)c(C(=O)Nc4cccnc4)c3n2)cc2c1C(=O)N([C@@H](C)C1CC1)C2 [Example 112, 2-Amino-5-{2-[(1S)-1-cyclopropylethyl]-7-ethanesulfonamido-1-oxo-2,3-dihydro-1H-isoindol-5-yl}-N-(pyridin-3-yl)pyrazolo[1,5-a]pyrimidine-3-carboxamide]
PI3Kγ (p120γ)
  IC50: < 100 nM
PI3Kγ
  IC50: < 100 nM

## COCCS(=O)(=O)Nc1cc(-c2ccn3nc(N)c(C(=O)NC4CC4)c3n2)cc2c1C(=O)N([C@@H](C)C1CC1)C2 [Example 113, 2-Amino-N-cyclopropyl-5-{2-[(1S)-1-cyclopropylethyl]-7-(2-methoxyethanesulfonamido)-1-oxo-2,3-dihydro-1H-isoindol-5-yl}pyrazolo[1,5-a]pyrimidine-3-carboxamide]
PI3Kγ (p120γ)
  IC50: < 100 nM
PI3Kγ
  IC50: < 100 nM

## C[C@@H](C1CC1)N1Cc2cc(-c3ccn4nc(N)c(C(=O)NC5CC5)c4n3)cc(N(C)S(C)(=O)=O)c2C1=O [Example 114, 2-Amino-N-cyclopropyl-5-{2-[(1S)-1-cyclopropylethyl]-7-(N-methylmethanesulfonamido)-1-oxo-2,3-dihydro-1H-isoindol-5-yl}pyrazolo[1,5-a]pyrimidine-3-carboxamide]
PI3Kγ (p120γ)
  IC50: < 100 nM
PI3Kγ
  IC50: < 100 nM

## C[C@H](N1Cc2cc(-c3ccn4nc(N)c(C(=O)NC5CC5)c4n3)cc(NS(C)(=O)=O)c2C1=O)C(F)(F)F [Example 115, 2-Amino-N-cyclopropyl-5-{7-methanesulfonamido-1-oxo-2-[(2S)-1,1,1-trifluoropropan-2-yl]-2,3-dihydro-1H-isoindol-5-yl}pyrazolo[1,5-a]pyrimidine-3-carboxamide]
PI3Kγ (p120γ)
  IC50: < 100 nM
PI3Kγ
  IC50: < 100 nM

## C[C@H](N1Cc2cc(-c3ccn4nc(N)c(C(=O)NC5COC5)c4n3)cc(NS(C)(=O)=O)c2C1=O)C(F)(F)F [Example 116, 2-Amino-5-{7-methanesulfonamido-1-oxo-2-[(2S)-1,1,1-trifluoropropan-2-yl]-2,3-dihydro-1H-isoindol-5-yl}-N-(oxetan-3-yl)pyrazolo[1,5-a]pyrimidine-3-carboxamide]
PI3Kγ (p120γ)
  IC50: < 100 nM
PI3Kγ
  IC50: < 100 nM

## C[C@H](N1Cc2cc(-c3ccn4nc(N)c(C(=O)NC5(C#N)COC5)c4n3)cc(NS(C)(=O)=O)c2C1=O)C(F)(F)F [Example 117, (S)-2-Amino-N-(3-cyanooxetan-3-yl)-5-(7-(methylsulfonamido)-1-oxo-2-(1,1,1-trifluoropropan-2-yl)isoindolin-5-yl)pyrazolo[1,5-a]pyrimidine-3-carboxamide]
PI3Kγ (p120γ)
  IC50: < 100 nM
PI3Kγ
  IC50: < 100 nM
